Assay results from publication PMC5218480 (PLoS ONE, 2017).

Tested on: MV-4-11 cells
Assay: Gene expression microarray analysis (Affymetrix PrimeView) and GSEA
Type: cell-based, human
Parameters: RFU PODN (11730768_x_at) / Fold change /veh PODN (11730768_x_at) / RFU LINC00158 (11744669_a_at) / Fold change /veh LINC00158 (11744669_a_at) / RFU DUSP10 (11751237_a_at) / Fold change /veh DUSP10 (11751237_a_at) / RFU ID3 (11757404_x_at) / Fold change /veh ID3 (11757404_x_at) / RFU PLEKHG5 (11737974_s_at) / Fold change /veh PLEKHG5 (11737974_s_at) / RFU LRRC4B (11730491_at) / Fold change /veh LRRC4B (11730491_at) / RFU GIMAP4 (11747438_a_at) / Fold change /veh GIMAP4 (11747438_a_at) / RFU KRT8 (11758183_x_at) / Fold change /veh KRT8 (11758183_x_at) / RFU CNN1 (11734310_a_at) / Fold change /veh CNN1 (11734310_a_at) / RFU VPS37D (11726825_at) / Fold change /veh VPS37D (11726825_at) / RFU C10orf10 (11716522_x_at) / Fold change /veh C10orf10 (11716522_x_at) / RFU KIR2DL2 /// KIR2DL4 /// KIR2DL5A /// KIR2DL5B /// KIR2DS1 /// KIR2DS2 /// KIR2DS3 /// KIR2DS4 /// KIR3DL3 /// KIR3DL3 /// KIR3DS1 (11738374_at) / Fold change /veh KIR2DL2 /// KIR2DL4 /// KIR2DL5A /// KIR2DL5B /// KIR2DS1 /// KIR2DS2 /// KIR2DS3 /// KIR2DS4 /// KIR3DL3 /// KIR3DL3 /// KIR3DS1 (11738374_at) / RFU C1QL1 (11718748_at) / Fold change /veh C1QL1 (11718748_at) / RFU TMPRSS4 (11747572_a_at) / Fold change /veh TMPRSS4 (11747572_a_at) / RFU HAMP (11756126_x_at) / Fold change /veh HAMP (11756126_x_at) / RFU RNFT2 (11725882_a_at) / Fold change /veh RNFT2 (11725882_a_at) / RFU NR4A2 (11747474_a_at) / Fold change /veh NR4A2 (11747474_a_at) / RFU ABCC12 (11746883_a_at) / Fold change /veh ABCC12 (11746883_a_at) / RFU TMEM136 (11760407_x_at) / Fold change /veh TMEM136 (11760407_x_at) / RFU CLDN22 /// WWC2 (11732394_at) / Fold change /veh CLDN22 /// WWC2 (11732394_at) / RFU HLA-DPB1 (11760878_x_at) / Fold change /veh HLA-DPB1 (11760878_x_at) / RFU SPINT1 (11716480_a_at) / Fold change /veh SPINT1 (11716480_a_at) / RFU GAP43 (11754022_s_at) / Fold change /veh GAP43 (11754022_s_at) / RFU A4GNT (11735810_at) / Fold change /veh A4GNT (11735810_at) / RFU PRB3 (11715151_x_at) / Fold change /veh PRB3 (11715151_x_at) / RFU TUBB4B (11761932_at) / Fold change /veh TUBB4B (11761932_at) / RFU CAPN14 (11732068_a_at) / Fold change /veh CAPN14 (11732068_a_at) / RFU TMCC2 (11721928_a_at) / Fold change /veh TMCC2 (11721928_a_at) / RFU IRGQ (11745062_a_at) / Fold change /veh IRGQ (11745062_a_at) / RFU FAM174B (11720279_a_at) / Fold change /veh FAM174B (11720279_a_at) / RFU TMPRSS4 (11748680_a_at) / Fold change /veh TMPRSS4 (11748680_a_at) / RFU FAM212B (11763350_a_at) / Fold change /veh FAM212B (11763350_a_at) / RFU PLEKHG5 (11743358_a_at) / Fold change /veh PLEKHG5 (11743358_a_at) / RFU ZSCAN30 (11745921_a_at) / Fold change /veh ZSCAN30 (11745921_a_at) / RFU CMKLR1 (11741424_a_at) / Fold change /veh CMKLR1 (11741424_a_at) / RFU LOC101060620 /// MAPK8IP1 (11723275_at) / Fold change /veh LOC101060620 /// MAPK8IP1 (11723275_at) / RFU SPTSSB (11747773_x_at) / Fold change /veh SPTSSB (11747773_x_at) / RFU PRSS12 (11739890_at) / Fold change /veh PRSS12 (11739890_at) / RFU BIN1 (11741810_x_at) / Fold change /veh BIN1 (11741810_x_at) / RFU WNT11 (11732464_a_at) / Fold change /veh WNT11 (11732464_a_at) / RFU C10orf10 (11716521_a_at) / Fold change /veh C10orf10 (11716521_a_at) / RFU C5orf56 (11738089_at) / Fold change /veh C5orf56 (11738089_at) / RFU CYB561 (11721691_x_at) / Fold change /veh CYB561 (11721691_x_at) / RFU ANKRD19P (11752326_a_at) / Fold change /veh ANKRD19P (11752326_a_at) / RFU OR2T12 /// OR2T33 /// OR2T8 (11738714_s_at) / Fold change /veh OR2T12 /// OR2T33 /// OR2T8 (11738714_s_at) / RFU VCAN (11748164_a_at) / Fold change /veh VCAN (11748164_a_at) / RFU JSRP1 (11732532_at) / Fold change /veh JSRP1 (11732532_at) / RFU KRTAP10-11 (11738290_x_at) / Fold change /veh KRTAP10-11 (11738290_x_at) / RFU MYO3A (11730013_a_at) / Fold change /veh MYO3A (11730013_a_at) / RFU EBF3 (11725865_a_at) / Fold change /veh EBF3 (11725865_a_at) / RFU CAMK2N1 (11719241_x_at) / Fold change /veh CAMK2N1 (11719241_x_at) / RFU C5orf56 (11738088_a_at) / Fold change /veh C5orf56 (11738088_a_at) / RFU OLFML3 (11715873_a_at) / Fold change /veh OLFML3 (11715873_a_at) / RFU LOC100653217 /// NTM (11731650_a_at) / Fold change /veh LOC100653217 /// NTM (11731650_a_at) / RFU MAPK11 (11762145_a_at) / Fold change /veh MAPK11 (11762145_a_at) / RFU FIZ1 (11724087_x_at) / Fold change /veh FIZ1 (11724087_x_at) / RFU OASL (11726364_x_at) / Fold change /veh OASL (11726364_x_at) / RFU SOX15 (11748057_x_at) / Fold change /veh SOX15 (11748057_x_at) / RFU CD79A (11719716_a_at) / Fold change /veh CD79A (11719716_a_at) / RFU HIST1H1D (11736915_at) / Fold change /veh HIST1H1D (11736915_at) / RFU CASKIN2 (11723855_a_at) / Fold change /veh CASKIN2 (11723855_a_at) / RFU LOC730098 (11760151_x_at) / Fold change /veh LOC730098 (11760151_x_at) / RFU OR4N2 (11742367_at) / Fold change /veh OR4N2 (11742367_at) / RFU PRRT2 (11749266_a_at) / Fold change /veh PRRT2 (11749266_a_at) / RFU SNX32 (11753110_a_at) / Fold change /veh SNX32 (11753110_a_at) / RFU CDHR5 (11726645_a_at) / Fold change /veh CDHR5 (11726645_a_at) / RFU RCAN1 (11760418_a_at) / Fold change /veh RCAN1 (11760418_a_at) / RFU FAM167A (11723789_a_at) / Fold change /veh FAM167A (11723789_a_at) / RFU FAM26E (11764081_at) / Fold change /veh FAM26E (11764081_at) / RFU ISYNA1 (11749810_s_at) / Fold change /veh ISYNA1 (11749810_s_at) / RFU ACY1 (11761880_at) / Fold change /veh ACY1 (11761880_at) / RFU 11764098_at / Fold change /veh 11764098_at / RFU SAMD14 (11745864_x_at) / Fold change /veh SAMD14 (11745864_x_at) / RFU NPB (11741838_a_at) / Fold change /veh NPB (11741838_a_at) / RFU TMPRSS6 (11731388_a_at) / Fold change /veh TMPRSS6 (11731388_a_at) / RFU KRTAP10-2 (11738614_at) / Fold change /veh KRTAP10-2 (11738614_at) / RFU ARHGAP8 /// PRR5-ARHGAP8 (11727945_x_at) / Fold change /veh ARHGAP8 /// PRR5-ARHGAP8 (11727945_x_at) / RFU KRTAP5-7 /// NADSYN1 (11734609_at) / Fold change /veh KRTAP5-7 /// NADSYN1 (11734609_at) / RFU RASL12 (11751679_a_at) / Fold change /veh RASL12 (11751679_a_at) / RFU CDKN2B (11736163_a_at) / Fold change /veh CDKN2B (11736163_a_at) / RFU PRF1 (11729649_at) / Fold change /veh PRF1 (11729649_at) / RFU, ZNF638 /// ZNF638-IT1 / Fold change vs veh, ZNF638 /// ZNF638-IT1 / RFU, PANK3 / Fold change vs veh, PANK3 / RFU, SH3YL1 / Fold change vs veh, SH3YL1 / RFU, ZEB2 / Fold change vs veh, ZEB2 / RFU, NRIP1 / Fold change vs veh, NRIP1 / RFU, PTTG1IP / Fold change vs veh, PTTG1IP / RFU, CAPN2 / Fold change vs veh, CAPN2 / RFU, MED14 / Fold change vs veh, MED14 / RFU, SNORA58 / Fold change vs veh, SNORA58 / RFU, C1orf63 / Fold change vs veh, C1orf63 / RFU, LRRFIP1 / Fold change vs veh, LRRFIP1 / RFU, NDUFAF7 / Fold change vs veh, NDUFAF7 / RFU, SLC12A2 / Fold change vs veh, SLC12A2 / RFU, IBTK / Fold change vs veh, IBTK / RFU, ESF1 / Fold change vs veh, ESF1 / Fold change vs veh, TMEM50B / RFU, TAOK1 / Fold change vs veh, TAOK1 / RFU, ACBD3 / Fold change vs veh, ACBD3 / RFU, TMA16 / Fold change vs veh, TMA16 / RFU, RWDD3 / Fold change vs veh, RWDD3 / RFU, BCAT1 / Fold change vs veh, BCAT1 / RFU, EDEM3 / Fold change vs veh, EDEM3 / RFU, TMEM33 / Fold change vs veh, TMEM33 / RFU, WDR75 / Fold change vs veh, WDR75 / RFU, AHCTF1 / Fold change vs veh, AHCTF1 / RFU, TFRC / Fold change vs veh, TFRC / RFU, ZDHHC17 / Fold change vs veh, ZDHHC17 / RFU, NOM1 / Fold change vs veh, NOM1 / RFU, ARL8B / Fold change vs veh, ARL8B / RFU, ZBTB11 / Fold change vs veh, ZBTB11 / RFU, TAMM41 / Fold change vs veh, TAMM41 / RFU, KIAA1704 /// LOC100996395 / Fold change vs veh, KIAA1704 /// LOC100996395 / RFU, ING1 / Fold change vs veh, ING1 / RFU, TRMT61B / Fold change vs veh, TRMT61B / RFU, FUBP3 / Fold change vs veh, FUBP3 / RFU, TP53 / Fold change vs veh, TP53 / RFU, TNKS2 / Fold change vs veh, TNKS2 / RFU, ZFP14 / Fold change vs veh, ZFP14 / RFU, ACTR2 / Fold change vs veh, ACTR2 / RFU, PPP3R1 / Fold change vs veh, PPP3R1 / RFU, PIK3R1 / Fold change vs veh, PIK3R1 / RFU, HNRNPA1 / Fold change vs veh, HNRNPA1 / RFU, RNF170 / Fold change vs veh, RNF170 / RFU, ZNF28 / Fold change vs veh, ZNF28 / RFU, RNGTT / Fold change vs veh, RNGTT / RFU, OGT / Fold change vs veh, OGT / RFU, BRD1 / Fold change vs veh, BRD1 / RFU, MARS / Fold change vs veh, MARS / RFU, ZNF655 / Fold change vs veh, ZNF655 / RFU, FAHD1 / Fold change vs veh, FAHD1 / RFU, BDP1 / Fold change vs veh, BDP1 / RFU, LRRCC1 / Fold change vs veh, LRRCC1 / RFU, ARID1A / Fold change vs veh, ARID1A / RFU, ZNF146 / Fold change vs veh, ZNF146 / RFU, ZNF330 / Fold change vs veh, ZNF330 / RFU, GPN3 / Fold change vs veh, GPN3 / RFU, C9orf123 / Fold change vs veh, C9orf123 / RFU, N4BP2L2 / Fold change vs veh, N4BP2L2 / RFU, ARFIP1 / Fold change vs veh, ARFIP1 / RFU, FAM179B / Fold change vs veh, FAM179B / RFU, BCL10 / Fold change vs veh, BCL10 / RFU, UHRF1BP1L / Fold change vs veh, UHRF1BP1L / RFU, BET1 / Fold change vs veh, BET1 / RFU, CNOT2 / Fold change vs veh, CNOT2 / RFU, ZNF268 / Fold change vs veh, ZNF268 / Fold change vs veh, ZNF507 / RFU, DGCR2 / Fold change vs veh, DGCR2 / RFU, WDSUB1 / Fold change vs veh, WDSUB1 / Fold change vs veh, HSP90B1 /// MIR3652 / RFU, ADSS / Fold change vs veh, ADSS / RFU, GK / Fold change vs veh, GK / RFU, ZNF148 / Fold change vs veh, ZNF148 / RFU, TAF9 / Fold change vs veh, TAF9 / RFU, SLC1A5 / Fold change vs veh, SLC1A5 / RFU, SLMO2 / Fold change vs veh, SLMO2 / RFU, ABCC4 / Fold change vs veh, ABCC4 / RFU, LOC101060439 /// RAP1B / Fold change vs veh, LOC101060439 /// RAP1B / RFU, RFX7 / Fold change vs veh, RFX7 / RFU, GTPBP10 / Fold change vs veh, GTPBP10 / RFU, CNEP1R1 / Fold change vs veh, CNEP1R1 / RFU, BIVM-ERCC5 /// ERCC5 / Fold change vs veh, BIVM-ERCC5 /// ERCC5 / RFU, ILF3 / Fold change vs veh, ILF3 / RFU 11762660_at / Fold change /veh 11762660_at / RFU VCAN (11757783_s_at) / Fold change /veh VCAN (11757783_s_at) / RFU DDX43 (11728927_at) / Fold change /veh DDX43 (11728927_at) / RFU KRT8 (11758188_x_at) / Fold change /veh KRT8 (11758188_x_at) / RFU NKD1 (11759106_at) / Fold change /veh NKD1 (11759106_at) / RFU SRD5A1 (11742802_a_at) / Fold change /veh SRD5A1 (11742802_a_at) / RFU TPSAB1 /// TPSB2 (11721975_s_at) / Fold change /veh TPSAB1 /// TPSB2 (11721975_s_at) / RFU GSTM3 (11746129_a_at) / Fold change /veh GSTM3 (11746129_a_at) / RFU IL23R (11737362_x_at) / Fold change /veh IL23R (11737362_x_at) / RFU TMEM51 (11727254_a_at) / Fold change /veh TMEM51 (11727254_a_at) / RFU PIWIL2 (11732686_x_at) / Fold change /veh PIWIL2 (11732686_x_at) / RFU ORM1 (11744905_x_at) / Fold change /veh ORM1 (11744905_x_at) / RFU CCDC152 (11743942_at) / Fold change /veh CCDC152 (11743942_at) / RFU ECM1 (11717891_a_at) / Fold change /veh ECM1 (11717891_a_at) / RFU IL23R (11748794_a_at) / Fold change /veh IL23R (11748794_a_at) / RFU TNFAIP8L3 (11732012_x_at) / Fold change /veh TNFAIP8L3 (11732012_x_at) / RFU MBOAT4 (11741988_at) / Fold change /veh MBOAT4 (11741988_at) / RFU 11764193_at / Fold change /veh 11764193_at / RFU TMEM53 (11763286_at) / Fold change /veh TMEM53 (11763286_at) / RFU MAGEB2 (11727129_at) / Fold change /veh MAGEB2 (11727129_at) / RFU TMEM200A (11744735_a_at) / Fold change /veh TMEM200A (11744735_a_at) / RFU CCDC152 (11751479_a_at) / Fold change /veh CCDC152 (11751479_a_at) / RFU FAM211A (11726209_a_at) / Fold change /veh FAM211A (11726209_a_at) / RFU RGS16 (11746705_a_at) / Fold change /veh RGS16 (11746705_a_at) / RFU VCAN (11755009_s_at) / Fold change /veh VCAN (11755009_s_at) / RFU RHOB (11743442_s_at) / Fold change /veh RHOB (11743442_s_at) / RFU RGS16 (11720943_a_at) / Fold change /veh RGS16 (11720943_a_at) / RFU RGS16 (11720944_at) / Fold change /veh RGS16 (11720944_at) / RFU, VPS4B / Fold change vs veh, VPS4B / RFU, CREB1 / Fold change vs veh, CREB1 / RFU, DNAJC13 / Fold change vs veh, DNAJC13 / RFU, GNAQ / Fold change vs veh, GNAQ / RFU, CDK5R1 / Fold change vs veh, CDK5R1 / RFU, ZRANB3 / Fold change vs veh, ZRANB3 / RFU, CUL4A / Fold change vs veh, CUL4A / RFU, CCNY / Fold change vs veh, CCNY / RFU, UFL1 / Fold change vs veh, UFL1 / RFU, COG3 / Fold change vs veh, COG3 / RFU, DIAPH2 / Fold change vs veh, DIAPH2 / RFU, SKA2 / Fold change vs veh, SKA2 / RFU, AFF3 / Fold change vs veh, AFF3 / RFU, LMF1 / Fold change vs veh, LMF1 / RFU, IPO11 / Fold change vs veh, IPO11 / RFU, DFFB / Fold change vs veh, DFFB / RFU, FOXP1 / Fold change vs veh, FOXP1 / RFU, CARD8 / Fold change vs veh, CARD8 / RFU, STRN3 / Fold change vs veh, STRN3 / RFU, ADK / Fold change vs veh, ADK / RFU, RASSF2 / Fold change vs veh, RASSF2 / RFU, WIPF1 / Fold change vs veh, WIPF1 / RFU, LARP1B / Fold change vs veh, LARP1B / RFU, RASA1 / Fold change vs veh, RASA1 / RFU, RB1 / Fold change vs veh, RB1 / RFU, PPFIA1 / Fold change vs veh, PPFIA1 / RFU, MAT2A / Fold change vs veh, MAT2A / RFU, CCT5 / Fold change vs veh, CCT5 / RFU, WDR92 / Fold change vs veh, WDR92 / RFU, CUX1 / Fold change vs veh, CUX1 / RFU, TTC7A / Fold change vs veh, TTC7A / RFU, TMEM135 / Fold change vs veh, TMEM135 / RFU, DEPTOR / Fold change vs veh, DEPTOR / RFU, CPM / Fold change vs veh, CPM / RFU, DNAJB6 / Fold change vs veh, DNAJB6 / RFU, CACNA2D3 / Fold change vs veh, CACNA2D3 / RFU, DTX4 / Fold change vs veh, DTX4 / RFU, TFCP2 / Fold change vs veh, TFCP2 / RFU, GMCL1 /// GMCL1P1 / Fold change vs veh, GMCL1 /// GMCL1P1 / RFU, AEBP2 / Fold change vs veh, AEBP2 / RFU, SNHG1 /// SNORD22 /// SNORD25 /// SNORD26 /// SNORD27 /// SNORD28 /// SNORD29 /// SNORD31 / Fold change vs veh, SNHG1 /// SNORD22 /// SNORD25 /// SNORD26 /// SNORD27 /// SNORD28 /// SNORD29 /// SNORD31 / Fold change (Aza/veh), C12orf56 (ProbeSet 11735607_a_at) / Fold change (ACY-1035/veh), C12orf56 (ProbeSet 11735607_a_at) / Fold change (Aza/veh), FGFR1OP (ProbeSet 11751329_s_at) / Fold change (ACY-1035/veh), FGFR1OP (ProbeSet 11751329_s_at) / Fold change (Aza/veh), VPS36 (ProbeSet 11739960_a_at) / Fold change (ACY-1035/veh), VPS36 (ProbeSet 11739960_a_at) / RFU SYPL1 (11715823_x_at) / Fold change /veh SYPL1 (11715823_x_at) / RFU IGFBP7 (11715501_s_at) / Fold change /veh IGFBP7 (11715501_s_at) / RFU REEP3 (11722064_at) / Fold change /veh REEP3 (11722064_at) / RFU IGLL1 (11728026_x_at) / Fold change /veh IGLL1 (11728026_x_at): dose or concentration left out as unconfirmed
Settings: MV-4-11 cells, 48 hours

## Nc1ccc(-c2cccs2)cc1NC(=O)c1ccc2c(c1)cc(C1CC1)n2CCN1CCOCC1 [ACY-1035]
  Fold change /veh SNX32 (11753110_a_at): 1.17
